From ChEMBL document CHEMBL1122736, “Replacement of the peptide-backbone amides connecting Tyr-Gly and Gly-Gly in leucine-enkephalin with ketomethylene groups: synthesis and biological activity” (J Med Chem, 1984) come the findings set out here.

The test system of experiment [1] is Mus musculus. The experiment can be described thus: Analgesic activity in mice by tail-flick test after intracerebroventricular administration at a dose of 48 ug/mouse after time duration of 8 minutes; no of mice survived / total no of mice tested-3. In kind it is functional. For orientation: Hot-plate and tail-flick tests time the reaction to a heat stimulus.

Experiment [2] deals with Mus musculus. The experiment can be described thus: Analgesic activity in mice by tail-flick test after intracerebroventricular administration at a dose of 48 ug/mouse after time duration of 4 minutes; no of mice survived / total no of mice tested-3. The format is functional.
Experiment [3] deals with Mus musculus. The experiment can be described thus: Analgesic activity in mice by tail-flick test after intracerebroventricular administration at a dose of 40 ug/mouse after time duration of 4 minutes; no of mice survived / total no of mice tested-3. In kind it is functional.
Experiment [4] deals with Mus musculus. The experiment can be described thus: Analgesic activity in mice by tail-flick test after intracerebroventricular administration at a dose of 12.2 ug/mouse after time duration of 2 minutes; no of mice survived / total no of mice tested-12. In kind it is functional.
Experiment [5] concerns Mus musculus. The experiment can be described thus: Analgesic activity in mice by tail-flick test after intracerebroventricular administration at a dose of 48 ug/mouse after time duration of 2 minutes; no of mice survived / total no of mice tested-2. In kind it is functional.
Experiment [6] concerns Mus musculus. The experiment can be described thus: Analgesic activity in mice by tail-flick test after intracerebroventricular administration at a dose of 60 ug/mouse after time duration of 8 minutes; no of mice survived / total no of mice tested-3. The format is functional.
Experiment [7] relates to Mus musculus. The experiment can be described thus: Analgesic activity in mice by tail-flick test after intracerebroventricular administration at a dose of 40 ug/mouse after time duration of 2 minutes; no of mice survived / total no of mice tested-2. The format is functional.
Experiment [8] concerns Mus musculus. The experiment can be described thus: Analgesic activity in mice by tail-flick test after intracerebroventricular administration at a dose of 24.3 ug/mouse after time duration of 2 minutes; no of mice survived / total no of mice tested-12. In kind it is functional.
The test system of experiment [9] is Mus musculus. The experiment can be described thus: Analgesic activity in mice by tail-flick test after intracerebroventricular administration at a dose of 60 ug/mouse after time duration of 2 minutes; no of mice survived / total no of mice tested-2. In kind it is functional.
The target in experiment [10] is Opioid receptor (Rattus norvegicus). The experiment can be described thus: Concentration required to inhibit the specific binding of tritiated ligand [3H]DADL to opiate receptor by 50%.
Experiment [11] has as its system Mus musculus. The experiment can be described thus: Analgesic activity in mice by tail-flick test after intracerebroventricular administration at a dose of 60 ug/mouse after time duration of 4 minutes; no of mice survived / total no of mice tested-3. In kind it is functional.
Experiment [12] concerns the target Opioid receptor (Rattus norvegicus). The experiment can be described thus: Concentration required to inhibit the specific binding of tritiated ligand [3H]naloxone to opiate receptor by 50%.
In experiment [13] the test system is Mus musculus. The experiment can be described thus: Analgesic activity in mice by tail-flick test after intracerebroventricular administration at a dose of 40 ug/mouse after time duration of 8 minutes; no of mice survived / total no of mice tested-3. In kind it is functional.
In experiment [14] the test system is Mus musculus. The experiment can be described thus: Analgesic activity in mice by tail-flick test after intracerebroventricular administration at a dose of 240 ug/mouse after time duration of 2 minutes; no of mice survived / total no of mice tested-6. The format is functional.

By IC50 is commonly meant the concentration that gives 50% inhibition. Read a low IC50 as greater potency. As for `CC(C)CC(NC(=O)C(Cc1ccccc1)NC(=O)CCC(=O)CCC(=O)C(N)Cc1ccc(O)cc1)C(=O)O` (centres undefined), the Analgesic response was 0 in experiment [1]; 1 in [2]; 1 in experiment [3]; 2 in experiment [4]; 1 in [5]; 0 in experiment [6]. Further, the Analgesic response in [7] was determined as 1; in experiment [8] it was 6; in [9] it was 1; in experiment [11], 1; in experiment [13], 0. The values for the IC50 in experiment [10] and in experiment [12] were 33 µM and 180 µM, respectively.

As to `CC(C)C[C@@H](NC(=O)[C@H](Cc1ccccc1)NC(=O)CNC(=O)[C@@H](C)NC(=O)[C@@H](N)Cc1ccc(O)cc1)C(=O)O` [DADLE], in experiment [14], the Analgesic response worked out at 4.
